Laboratory results taken from PMC5729109 (Journal of the American Chemical Society, 2017).
“And” between values parts separate entries of the source, which are not always exact repeats. Equal values may be shown once. Marks after values point to notes of the source that are not given here. *1 amine or outer side, *2 acyl side, *3 side chain or, on linkers, in order; H or OH if unused. Where a SMILES comes first, the peptide text is derived from it. Bridges are numbered along the chain shown (N, C = ends). [ ]: non-standard residue; d: D form. Adda = CO[C@@H](Cc1ccccc1)[C@@H](C)/C=C(C)/C=C/[C@H](N[*:1])[C@H](C)C(=O)[*:2]; dAsp(3S-Me) = C[C@H](C(=O)[*:3])[C@@H](N[*:1])C(=O)[*:2]; d(γGlu) = O=C(O)[C@@H](CCC(=O)[*:2])N[*:1]; NMeDha = C=C(NC)C(=O)O

Legend:
PP1 [1] = target: T1, PP1 (Homo sapiens, UniProt P62136); assay: [32P]-phosphohistone dephosphorylation assay, PP1; assay type: biochemical
T1 sequence (P62136 whole entry): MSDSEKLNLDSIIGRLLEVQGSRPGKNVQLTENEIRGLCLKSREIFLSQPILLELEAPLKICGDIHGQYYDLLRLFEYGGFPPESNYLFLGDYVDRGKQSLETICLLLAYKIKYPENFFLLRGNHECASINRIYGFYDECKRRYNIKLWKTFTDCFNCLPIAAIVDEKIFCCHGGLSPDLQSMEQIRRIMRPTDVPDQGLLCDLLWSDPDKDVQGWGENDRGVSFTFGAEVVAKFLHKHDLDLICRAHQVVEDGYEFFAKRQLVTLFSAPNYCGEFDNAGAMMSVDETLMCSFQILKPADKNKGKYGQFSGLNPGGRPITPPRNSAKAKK

PP2A [2] = target: T2, PP2A (Homo sapiens, UniProt P67775); assay: [32P]-phosphohistone dephosphorylation assay, PP2A; assay type: biochemical
T2 sequence (P67775 whole entry): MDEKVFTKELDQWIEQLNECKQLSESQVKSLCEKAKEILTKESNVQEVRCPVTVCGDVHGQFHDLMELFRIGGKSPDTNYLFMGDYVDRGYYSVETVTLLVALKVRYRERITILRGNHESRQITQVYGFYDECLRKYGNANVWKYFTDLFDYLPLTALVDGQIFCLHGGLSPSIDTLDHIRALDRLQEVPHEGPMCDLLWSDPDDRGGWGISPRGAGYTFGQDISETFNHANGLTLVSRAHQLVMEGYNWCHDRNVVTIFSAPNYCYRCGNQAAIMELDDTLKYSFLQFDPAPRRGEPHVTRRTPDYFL

PP5 = PP5 (Homo sapiens, UniProt P53041); assay: [32P]-phosphohistone dephosphorylation assay, PP5; assay type: biochemical
Chain of PP5 (P53041 whole entry): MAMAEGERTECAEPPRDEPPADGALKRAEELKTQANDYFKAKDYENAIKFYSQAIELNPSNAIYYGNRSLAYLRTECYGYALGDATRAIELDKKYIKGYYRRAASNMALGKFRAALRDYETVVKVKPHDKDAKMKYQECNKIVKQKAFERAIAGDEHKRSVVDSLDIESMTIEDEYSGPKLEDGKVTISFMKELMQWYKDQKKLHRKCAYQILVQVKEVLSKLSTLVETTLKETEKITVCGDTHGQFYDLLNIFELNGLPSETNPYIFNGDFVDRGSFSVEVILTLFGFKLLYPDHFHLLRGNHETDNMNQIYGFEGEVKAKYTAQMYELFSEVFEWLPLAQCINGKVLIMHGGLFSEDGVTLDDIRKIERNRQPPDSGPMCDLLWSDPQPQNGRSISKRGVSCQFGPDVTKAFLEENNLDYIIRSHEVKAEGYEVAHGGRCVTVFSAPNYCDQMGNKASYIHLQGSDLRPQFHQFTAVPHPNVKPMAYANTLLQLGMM

PP4 = PP4 (Homo sapiens, UniProt P60510); assay: DiFMUP dephosphorylation assay, PP4; assay type: biochemical
Chain of PP4 (P60510 whole entry): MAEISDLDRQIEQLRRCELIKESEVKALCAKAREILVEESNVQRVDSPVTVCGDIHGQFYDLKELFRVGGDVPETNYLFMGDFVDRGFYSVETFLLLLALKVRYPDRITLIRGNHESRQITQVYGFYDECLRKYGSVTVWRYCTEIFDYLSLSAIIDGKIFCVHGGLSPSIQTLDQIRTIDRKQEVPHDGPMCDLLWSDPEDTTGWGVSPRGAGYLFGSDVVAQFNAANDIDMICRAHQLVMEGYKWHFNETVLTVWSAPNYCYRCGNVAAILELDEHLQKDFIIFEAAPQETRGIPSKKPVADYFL

PP6 = PP6 (Homo sapiens, UniProt O00743); assay: DiFMUP dephosphorylation assay, PP6; assay type: biochemical
Chain of PP6 (O00743 whole entry): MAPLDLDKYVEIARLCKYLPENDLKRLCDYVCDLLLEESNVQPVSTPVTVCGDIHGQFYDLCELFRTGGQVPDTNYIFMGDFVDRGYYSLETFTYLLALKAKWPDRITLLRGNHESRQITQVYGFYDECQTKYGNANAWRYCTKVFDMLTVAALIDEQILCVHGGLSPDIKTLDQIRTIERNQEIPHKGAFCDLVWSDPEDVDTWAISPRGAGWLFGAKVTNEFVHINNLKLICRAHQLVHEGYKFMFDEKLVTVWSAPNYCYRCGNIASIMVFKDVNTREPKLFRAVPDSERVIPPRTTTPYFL

PP2B = PP2B (Homo sapiens, UniProt Q08209); assay: DiFMUP dephosphorylation assay, PP2B; assay type: biochemical
Chain of PP2B (P63098 2-170, other chains not shown): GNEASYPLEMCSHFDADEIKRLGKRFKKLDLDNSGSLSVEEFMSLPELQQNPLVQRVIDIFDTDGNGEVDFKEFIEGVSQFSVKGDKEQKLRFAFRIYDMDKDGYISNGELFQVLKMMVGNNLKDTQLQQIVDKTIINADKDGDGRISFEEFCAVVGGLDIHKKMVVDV

SHP2 [3] = assay: Tyrosine phosphatase inhibition, SHP2; assay type: biochemical; settings: IC50 SHP2 / IC50 PP1
SHP1 [4] = assay: Tyrosine phosphatase inhibition, SHP1; assay type: biochemical; settings: IC50 SHP1 / IC50 PP1
Lyp [5] = assay: Tyrosine phosphatase inhibition, Lyp; assay type: biochemical; settings: IC50 Lyp / IC50 PP1
PTP1B [6] = assay: Tyrosine phosphatase inhibition, PTP1B; assay type: biochemical; settings: IC50 PTP1B / IC50 PP1
PTPα [7] = assay: Tyrosine phosphatase inhibition, PTPα; assay type: biochemical; settings: IC50 PTPα / IC50 PP1
HePTP [8] = assay: Tyrosine phosphatase inhibition, HePTP; assay type: biochemical; settings: IC50 HePTP / IC50 PP1
CD45 [9] = assay: Tyrosine phosphatase inhibition, CD45; assay type: biochemical; settings: IC50 CD45 / IC50 PP1
VHR [10] = assay: Tyrosine phosphatase inhibition, VHR; assay type: biochemical; settings: IC50 VHR / IC50 PP1
CDC14A [11] = assay: Tyrosine phosphatase inhibition, CDC14A; assay type: biochemical; settings: IC50 CDC14A / IC50 PP1
PPP family members = assay: In vitro dephosphorylation assays across PPP family members; assay type: biochemical
[12] = target: PP1 Cys127Ser mutant (C127SPP1) (Homo sapiens, UniProt P62136, C127S); assay type: biochemical
Chain of PP1 Cys127Ser mutant (C127SPP1) (P62136 whole entry C127S): as the sequence (P62136 whole entry) above, with C127S counted along it

PP1 [13] = target: T1, PP1; assay: Lineweaver-Burk kinetic analysis, PP1; assay type: biochemical; settings: WT PP1; indicative of irreversible enzyme inhibition; Figure S6
PP1 (Cys127) = PP1 (Cys127) (Homo sapiens, UniProt P62136); assay: ESI mass spectrometry of covalent PP1:TTN adduct, time-course; assay type: binding; settings: ESI-MS time-course analysis
Chain of PP1 (Cys127) (P62136 7-300): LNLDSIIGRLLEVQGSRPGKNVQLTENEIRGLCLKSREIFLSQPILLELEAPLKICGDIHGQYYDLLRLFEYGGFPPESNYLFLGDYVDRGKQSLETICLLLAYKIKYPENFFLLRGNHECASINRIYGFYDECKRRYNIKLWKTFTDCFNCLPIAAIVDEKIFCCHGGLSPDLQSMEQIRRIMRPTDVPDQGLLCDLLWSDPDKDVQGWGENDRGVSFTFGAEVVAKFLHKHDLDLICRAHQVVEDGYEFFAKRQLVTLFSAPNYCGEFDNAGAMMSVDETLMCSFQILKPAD

SHP2 [14] = settings: tyrosine phosphatase; cited from earlier work
SHP1 [15] = settings: tyrosine phosphatase; cited from earlier work
Lyp [16] = settings: tyrosine phosphatase; cited from earlier work
PTP1B [17] = settings: tyrosine phosphatase; cited from earlier work
PTPα [18] = settings: tyrosine phosphatase; cited from earlier work
HePTP [19] = settings: tyrosine phosphatase; cited from earlier work
CD45 [20] = settings: tyrosine phosphatase; cited from earlier work
VHR [21] = settings: tyrosine phosphatase; cited from earlier work
CDC14A [22] = settings: tyrosine phosphatase; cited from earlier work
PP1, PP2A, PP4 and PP5 = settings: cited from earlier work
PP2A [23] = target: T2, PP2A; settings: cited from earlier work

C=C/C(=C/C(=O)C[C@H](C)C[C@@H](C)CC[C@H](O)[C@H](C)C(=O)C[C@@H](O)[C@H](C)[C@@H](C)OC(=O)C[C@@H](O)C1=C(C)C(=O)OC1=O)CC [TTN, Tautomycetin]
IC50 (PP1 [1]): 0.038 ± 0.009 nM | IC50 (PP2A [2]): 0.0053 ± 0.00026 µM | Fold change (relative to PP1) (PP2A [2]; IC50 PP2A / IC50 PP1, [32P]-phosphohistone): 139 ^b fold | IC50 (PP5): 0.0119 ± 5e-05 µM | Fold change (relative to PP1) (PP5; IC50 PP5 / IC50 PP1, [32P]-phosphohistone): 313 ^b fold | IC50 (PP4): 0.0444 ± 0.0042 µM | Fold change (relative to PP1) (PP4; IC50 PP4 / IC50 PP1): 1168 fold | IC50 (PP6): 0.101 ± 0.007 µM | Fold change (relative to PP1) (PP6; IC50 PP6 / IC50 PP1): 2657 fold | IC50 (PP2B): 17.5 ± 3.2 µM | Fold change (relative to PP1) (PP2B; IC50 PP2B / IC50 PP1): >10^5 fold | Fold change (relative to PP1) (SHP2 [3]): >10^4 fold | Fold change (relative to PP1) (SHP1 [4]): >10^5 fold | Fold change (relative to PP1) (Lyp [5]): >10^5 fold | Fold change (relative to PP1) (PTP1B [6]): >10^5 fold | Fold change (relative to PP1) (PTPα [7]): >10^5 fold | Fold change (relative to PP1) (HePTP [8]): >10^5 fold | Fold change (relative to PP1) (CD45 [9]): >10^5 fold | Fold change (relative to PP1) (VHR [10]): >10^5 fold | Fold change (relative to PP1) (CDC14A [11]): >10^5 fold | Selectivity (potency) for PP1 versus any other PPP tested (PPP family members): > 100 fold and 100 fold | Fold higher IC50 than for PP1, the other PPPs tested (PPP family members; PPPs other than PP2A and PP5): > 10^3 fold | Change of IC50 for C127SPP1 compared to WT PP1 [12]: ~10 fold | Mode of inhibition (Lineweaver-Burk kinetic analysis) ([12]; C127SPP1, Figure S6): competitive inhibition | Mode of inhibition (Lineweaver-Burk kinetic analysis) (PP1 [13]): noncompetitive inhibition | Time of covalent adduct formation with PP1 (PP1 (Cys127)): less than 10 min | IC50 (SHP2 [14]): 2.9 ± 0.2 µM | IC50 (SHP1 [15]): 14.6 ± 0.1 µM | IC50 (Lyp [16]): 20 ± 2 µM | IC50 (PTP1B [17]): 41.2 ± 4.4 µM | IC50 (PTPα [18]): > 50 µM | IC50 (HePTP [19]): > 50 µM | IC50 (CD45 [20]): > 50 µM | IC50 (VHR [21]): > 50 µM | IC50 (CDC14A [22]): > 50 µM

CO[C@H]([C@H](O)CC(=O)[C@@H](C)[C@@H](O)CC[C@@H](C)[C@@H]1O[C@]2(CC[C@@H](C)[C@H](CC[C@H](C)C(C)=O)O2)CC[C@@H]1C)[C@H](OC(=O)C[C@@H](O)C1=C(C)C(=O)OC1=O)C(C)C [TTM, tautomycin]
Inhibition of PP1, PP2A, PP4 and PP5 compared (PP1, PP2A, PP4 and PP5): to a similar extent

C=C1C(=O)N[C@H](C)C(=O)N[C@@H](CC(C)C)C(=O)N[C@@H](C(=O)O)[C@H](C)C(=O)N[C@@H](CCCNC(=N)N)C(=O)N[C@@H](/C=C/C(C)=C/[C@H](C)[C@H](Cc2ccccc2)OC)[C@H](C)C(=O)N[C@@H](C(=O)O)CCC(=O)N1C [Microcystin-LR] (R[Adda][d(γGlu)][NMeDha][dA]L[dAsp(3S-Me)]-OH; lactam N-7)
Change of IC50 for C127SPP1 compared to WT PP1 [12]: no difference

C[C@@](O)(/C=C/[C@H]1CC=CC(=O)O1)[C@@H](C[C@@H](O)\C=C/C=C\C=C\CO)OP(=O)(O)O [fostriecin]
Inhibition of PP2A compared with PP4 (PP2A [23]): nearly the same extent
